{"source": "patent US12492403B2", "about": "“Aptamers and the use thereof in the treatment of cancer” (FUNDACIÓN PARA LA INVESTIGACIÓN BIOMÉDICA DEL HOSPITAL …, priority 2018, dated 2025)", "key": {"[1]": {"system": "MDA-MB-231 cells", "assay": "Cell viability by trypan blue exclusion", "format": "cell-based, human", "conditions": "MDA-MB-231, 400 nM, 24 hours after transfection, vs control aptamer AT", "description": "(§1) FIG. 9. Cell viability analysis by trypan blue exclusion. MCF7, MDA-MB-231, and MDA-MB-468 cells from different experiments were collected 24 hours after transfection, diluted 1:10 in trypan blue, and counted in a TC20 counter (BioRad, USA). The boxes represent the mean±the maximum and minimum of 12-14 independent experiments (**p<0.01, and ***p<0.001 with respect to the control aptamer AT). Trypan blue exclusion. Cells (live and dead) were collected in their corresponding medium, trypan blue (Sigma-Aldrich, USA) was added, and the cells were counted using the TC20 counter (BioRad, USA). Living cells are those which exclude the dye. The results were expressed as the number of living cells/mL. The cell lines were then transfected with the previously established concentrations and the number of living cells was determined 24 hours after transfection with […]2 or with the control aptamer AT by means of trypan blue exclusion."}, "[2]": {"system": "MDA-MB-468 cells", "assay": "Cell viability by trypan blue exclusion", "format": "cell-based, human", "conditions": "MDA-MB-468, 50 nM, 24 hours after transfection, vs control aptamer AT", "description": "as §1"}, "[3]": {"system": "MCF7 cells", "assay": "Cell viability by trypan blue exclusion", "format": "cell-based, human", "conditions": "MCF7, 150 nM, 24 hours after transfection, vs control aptamer AT", "description": "as §1"}, "[4]": {"system": "4T1 cells", "assay": "Transwell migration assay in 4T1 cells", "format": "cell-based, mouse", "conditions": "500 nM, 24 hours migration", "description": "FIG. 21A-21E. In vivo efficacy of apMNKQ2 in a mouse metastatic model with an orthotopic xenograft of 4T1 cells. (A) Effect of apMNKQ2 aptamer on the proliferation of 4T1 cells (mouse breast tumor line). 4T1 cells were seeded in p96 at a density of 1.5×10^3 cells/well. […] The graph (FIG. 21A) represents the means±SEM of 3 independent experiments. (B) Effect of apMNKQ2 aptamer on migration and invasion of 4T1 cells. Cells were seeded in p6 at a density of 2×10^5 cells/well and transfected with 500 nM apMNKQ2 at 24 hours. […] At 24 hours (migration) or 48 h (invasion), the transwell membranes were stained with Hoechst and the cells that had passed through the fluorescence microscopy were quantified. […] The number of metastases is analyzed by the reverse staining method (with Chinese ink) and the metastases grouped according to their size in four groups (0.5, 1, 2 and >2). […]\nCell migration and invasion assays were performed using transwell (Corning, USA). […] After that time, they were collected, counted, and reseeded 4×10^4 cells in 300 μl of a serum-free complete medium inside the transwell (migration) or a transwell on which a layer of 100 μL of Matrigel (Corning, USA) (invasion) had previously been polymerized. […] Finally, two washes in PBS were performed, and 5 photographs of each membrane of the transwell were taken using a fluorescence microscope (Olympus IX70). […]"}, "[5]": {"system": "MNK1", "assay": "Apta-western with biotin-labeled aptamer", "format": "binding", "text": "FIGS. 6A-6C. Characterization of the interaction of aptamer apMNKQ2 with MNK1 by means of Apta-western. Detection of MNK1a and MNK1b, as well as of the two GST-bound variants MNK1aΔ77 and MNK1ΔCt, with biotin-labeled aptamer apMNKQ2 in electrophoresis (12%) in denaturing conditions (FIG. 6A) and in native conditions (without SDS or β-mercaptoethanol) (FIG. 6B). Quantification of protein levels in relation to MNK1a (*p<0.05 with respect to 1) (FIG. 6C).\nIn the apta-western assays, the proteins were resolved in polyacrylamide gels in native or denaturing conditions, transferred to PVDF membranes, and incubated with aptamers and streptavidin-peroxidase as indicated above after blocking with 5% PBS-BSA. Finally, the signal was visualized with the chemiluminescence developing system (Clarity Western ECL, BioRad, USA).\nOn the other hand, apta-western assays were carried out to confirm the affinity of the aptamer apMNKQ2 for proteins MNK1a and MNK1b. To that end, the four constructs used in FIG. 5A were analyzed by electrophoresis, blot, and apta detection. […] This may be due to the fact that the site the aptamer recognizes may not be accessible in all the proteins when they are structured and said site may be exposed as the proteins denature. […] The result is shown in FIG. 6B and quantified in FIG. 6C."}}}
{"substance": "5′TGGGGTGGGCGGGCGGGGGTGGGGGTGGT-3′ (DNA, backbone and methylation of C not given here; further chemistry not fully specified) [apMNKQ2]", "values": [{"measurement": "total number of living cells (trypan blue exclusion)", "setting": "[1]", "result": "very slight drop"}, {"measurement": "total number of living cells (trypan blue exclusion)", "setting": "[2]", "result": "significant drop"}, {"measurement": "total number of living cells (trypan blue exclusion)", "setting": "[3]", "result": "significant drop"}, {"measurement": "migration of 4T1 cells", "setting": "[4]", "result": "significantly decrease"}, {"measurement": "recognition of MNK1a, MNK1b, MNK1aΔ77 and MNK1ΔCt (apta-western)", "setting": "[5]; denaturing conditions", "result": "capable of recognizing and binding to the four isoforms of the protein in a similar manner"}, {"measurement": "recognition of MNK1a, MNK1b, MNK1aΔ77 and MNK1ΔCt (apta-western)", "setting": "[5]; native conditions (without SDS or β-mercaptoethanol)", "result": "capable of significantly differentiating MNK1b from other isoforms"}]}
